Legend:
Assay type in all cases: binding
[1] = biological target: T1, panel of 442 kinases (Homo sapiens, UniProt Q52WX2); conditions: kinase SBK1; compound concentration 10 µM
T1 construct: purchased KINOMEscan
From the text: (§1) We assessed the selectivity of members of this scaffold using the KINOMEscan methodology across a near comprehensive panel of 442 kinases [[18,27]].

[2] = biological target: T2, panel of 442 kinases (Homo sapiens, UniProt O15111); conditions: Compound Concentration 10 µM
T2 construct: purchased KINOMEscan
T2 sequence (O15111 1-745): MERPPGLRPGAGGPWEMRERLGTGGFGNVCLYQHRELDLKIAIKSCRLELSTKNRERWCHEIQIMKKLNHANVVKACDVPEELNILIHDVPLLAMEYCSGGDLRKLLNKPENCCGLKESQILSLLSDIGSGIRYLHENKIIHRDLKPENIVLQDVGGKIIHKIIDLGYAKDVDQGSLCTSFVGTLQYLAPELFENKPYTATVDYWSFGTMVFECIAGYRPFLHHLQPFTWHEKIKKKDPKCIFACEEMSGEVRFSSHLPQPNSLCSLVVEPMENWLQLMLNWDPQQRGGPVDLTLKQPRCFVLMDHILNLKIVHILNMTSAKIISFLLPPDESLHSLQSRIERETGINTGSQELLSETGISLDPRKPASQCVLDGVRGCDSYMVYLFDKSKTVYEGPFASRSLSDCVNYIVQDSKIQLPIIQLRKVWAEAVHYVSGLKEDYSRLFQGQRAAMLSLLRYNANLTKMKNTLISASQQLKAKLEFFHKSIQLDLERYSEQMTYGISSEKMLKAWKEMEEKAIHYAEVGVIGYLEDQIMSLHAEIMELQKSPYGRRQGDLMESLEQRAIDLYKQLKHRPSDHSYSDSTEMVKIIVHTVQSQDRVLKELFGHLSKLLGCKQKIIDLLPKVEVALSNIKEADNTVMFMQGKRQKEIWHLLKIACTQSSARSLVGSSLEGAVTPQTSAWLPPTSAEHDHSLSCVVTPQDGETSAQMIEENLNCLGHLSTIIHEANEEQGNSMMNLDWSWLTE
From the text: as §1

[3] = biological target: T3, panel of 442 kinases (Homo sapiens, UniProt P23443); conditions: kinase S6K1; compound concentration 10 µM
T3 construct: purchased KINOMEscan
From the text: as §1

T1 sequence (Q52WX2 whole entry): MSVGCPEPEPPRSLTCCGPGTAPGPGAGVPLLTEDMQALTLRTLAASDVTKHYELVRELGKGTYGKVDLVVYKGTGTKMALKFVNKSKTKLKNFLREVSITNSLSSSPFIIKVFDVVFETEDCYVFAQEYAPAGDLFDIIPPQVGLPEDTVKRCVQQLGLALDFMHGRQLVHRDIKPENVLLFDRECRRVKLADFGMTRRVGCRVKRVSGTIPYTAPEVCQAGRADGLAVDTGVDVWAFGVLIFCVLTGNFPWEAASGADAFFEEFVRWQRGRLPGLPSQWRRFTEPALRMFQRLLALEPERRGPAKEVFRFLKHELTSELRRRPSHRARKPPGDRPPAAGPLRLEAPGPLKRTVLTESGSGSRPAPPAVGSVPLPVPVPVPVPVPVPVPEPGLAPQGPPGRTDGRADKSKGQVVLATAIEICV
T3 sequence (P23443 whole entry): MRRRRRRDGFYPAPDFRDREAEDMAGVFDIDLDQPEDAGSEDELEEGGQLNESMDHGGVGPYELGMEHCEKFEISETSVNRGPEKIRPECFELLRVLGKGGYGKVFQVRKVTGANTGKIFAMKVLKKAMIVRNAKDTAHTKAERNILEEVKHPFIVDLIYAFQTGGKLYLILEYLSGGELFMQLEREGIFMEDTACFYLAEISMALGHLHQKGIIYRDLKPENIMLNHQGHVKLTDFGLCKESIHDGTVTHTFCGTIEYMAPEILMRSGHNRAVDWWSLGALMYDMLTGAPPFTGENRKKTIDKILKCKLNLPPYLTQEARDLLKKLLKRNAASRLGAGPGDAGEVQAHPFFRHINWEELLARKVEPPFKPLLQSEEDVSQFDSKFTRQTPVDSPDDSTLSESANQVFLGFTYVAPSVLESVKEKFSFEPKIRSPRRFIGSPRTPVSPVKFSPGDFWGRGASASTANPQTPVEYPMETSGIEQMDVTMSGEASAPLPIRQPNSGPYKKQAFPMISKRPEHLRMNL

| Compound | % Ctrl, SBK1 [1] | KINOMEscan: IKK-alpha [2] | % Ctrl, S6K1 [3] |
| --- | --- | --- | --- |
| COc1cc(C(=O)N2CCC(N3CCN(C)CC3)CC2)ccc1Nc1ncc2c(n1)N(C)c1ccccc1C(=O)N2C [15 (LRRK2-IN-1)] | 100 % Ctrl | 100 | 100 % Ctrl |
| CCOc1cc(C(=O)N2CCC(N3CCN(C)CC3)CC2)ccc1Nc1ncc2c(n1)N(C1CCCC1)c1ccccc1C(=O)N2C [Compound 26] | 99 % Ctrl | 100 | 100 % Ctrl |
| COc1cc(C(=O)N2CCC(N3CCN(C)CC3)CC2)ccc1Nc1ncc2c(n1)N1CCc3cccc(c31)C(=O)N2C [Compound 24] | 80 % Ctrl | – | 100 % Ctrl |
| COc1cc(C(=O)N2CCC(N3CCN(C)CC3)CC2)ccc1Nc1ncc2c(n1)N(C1CCCC1)c1ccccc1C(=O)N2C [Compound 25, 11-cyclopentyl-2-((2-methoxy-4-(4-(4-methylpiperazin-1-yl)piperidine-1-carbonyl)phenyl)amino)-5-methyl-5H-benzo[e]pyrimido[5,4-b][1,4]diazepin-6(11H)-one] | 72 % Ctrl | 100 | 100 % Ctrl |
